According to patent US7186744B2, “Prostamides for the treatment of glaucoma and related diseases” (Allergan, Inc., priority 2003, dated 2007):
Marks after values point to notes of the source that are not given here.

Test system: dogs (Beagle)
Test: Intraocular pressure studies by pneumatonometry in dogs
Assay type: in vivo
Details: conscious Beagle dogs, topical 25 μL drop, 0.03% drug
Method: Intraocular pressure studies were carried out for compounds 1–3 by pneumatonometry in dogs (Beagle) of both sexes (10–15 kg). The animals remained conscious throughout the study and were gently restrained by hand. Drugs were administered topically to one eye as a 25 μL volume drop comprising 0.03% drug, 0.1% polysorbate 80:10 mM TRIS, the other eye received 0.1% polysorbate 80:10 mM TRIS. Proparacaine (0.1%) was used for corneal anesthesia during tonometry. Intraocular pressure was determined just before drug administration and at 2, 4 and 6 hours thereafter on each day of the 5 day study. […] Drug was administered immediately after the first IOP reading.

[1] = 0 hrs (just before drug administration)

Structure (SMILES) | Change in Intraocular Pressure (IOP) [1] | Change in Intraocular Pressure (IOP) (2 hrs) | Change in Intraocular Pressure (IOP) (4 hrs) | Change in Intraocular Pressure (IOP) (6 hrs) | Change in Intraocular Pressure (IOP) (24 hrs)
CCCCC[C@H](O)/C=C/[C@@H]1[C@@H](C/C=C\CCCC(=O)NCCc2ccc(O)c(O)c2)[C@@H](O)C[C@H]1O [Compound 2, (Z)-7-[(1R,2R,3R,5S)-3,5-Dihydroxy-2-((E)—(S)-3-hydroxy-oct-1-enyl)-cyclopentyl]-hept-5-enoic acid [2-(3,4-dihydroxy-phenyl)-ethyl]-amide] | 0 | −3.8* | −3.2** | −3.2** | −1.1*
CCCCC[C@H](O)/C=C/[C@@H]1[C@@H](C/C=C\CCCC(=O)NCCc2c[nH]c3ccc(O)cc23)[C@@H](O)C[C@H]1O [Compound 3, (Z)-7-[(1R,2R,3R,5S)-3,5-Dihydroxy-2-((E)—(S)-3-hydroxy-oct-1-enyl)-cyclopentyl]-hept-5-enoic acid [2-(5-hydroxy-1H-indol-3-yl)-ethyl]-amide] | 0 | −3.2* | −5.8* | −7.6** | −2.2
